Assay: Calcium liability (tolerance test in mice)
Assay type: in vivo
Conditions: mice (25-30 g), daily subcutaneous administration for 4 consecutive days; dose giving zero weight gain over the 5-day treatment period
Source text: Calcium Liability (Tolerance Test in Mice):
This test gives a global picture of calcemic liability. Profound changes in calcium homeostasis strongly affect the weight development of the animals. This parameter was used as a primary test for tolerance. Mice (25-30 g body weight) received daily subcutaneous administrations of the vitamin D derivative for 4 consecutive days. Body weight was registered just before and at the end of a 5-day treatment period. The “highest tolerated dose” (HTDsc) in mice is the dose which results in zero weight gain during this treatment period.

C=C1/C(=C\C=C2/CCC[C@]3(C)[C@@H]([C@H](C)CCCC(C)(C)O)CC[C@@H]23)C[C@@H](O)C[C@@H]1O [calcitriol]
HTDs.c. highest tolerated dose without weight loss: 1 µg/kg
